Test results as given in patent publication US8492328B2, “Biomarkers and methods for determining sensitivity to insulin growth factor-1 receptor modulators” (Bristol-Myers Squibb Company, priority 2007, dated 2013).
“Also recorded” adds a separate entry of the source.

Columns and labels:
5838 = assay: In vitro cellular proliferation assay ([3H]-thymidine incorporation); assay type: cell-based, human
Procedure: (§1) All pediatric sarcoma and neuroblastoma cell lines were obtained from Dr. Lee Helman at NIH. All cell lines were grown in RPMI medium supplemented with Glutamax (Gibco/Invitrogen #61870-036), 10% inactivated fetal bovine serum (Gibco/Invitrogen #16140-071), 10 mM Hepes, penicillin and streptomycin.
(§2) Cells were plated at an optimized density for each cell line per well in 96-well microtiter Falcon plates, incubated overnight, and then exposed to a serial dilution of drug. After 72 hours incubation with drug at 37° C., cells were pulsed with 4 μCi/ml [6-3H] thymidine (Amersham Pharmacia Biotech, UK) for 3 hours, trypsinized, harvested onto UniFilter-96, GF/B plates (PerkinElmer, Boston, Mass.) and scintillation was measured on a TopCount NXT (Packard, Conn.). Results were expressed as an IC50, which is the drug concentration required to inhibit cell proliferation by 50% to that of untreated control cells. The mean IC50 and standard deviation (SD) from multiple tests for each cell line were calculated.

CTR = assay: as above; assay type: cell-based, human
Procedure: as §1, §2

H2052 = assay: as above; assay type: cell-based, human
Procedure: as §1, §2

H211 = assay: as above; assay type: cell-based, human
Procedure: as §1, §2

H2595 = assay: as above; assay type: cell-based, human
Procedure: as §1, §2

H513 = assay: as above; assay type: cell-based, human
Procedure: as §1, §2

HT1080/S = assay: as above; assay type: cell-based, human
Procedure: as §1, §2

HTB-92 = assay: as above; assay type: cell-based, human
Procedure: as §1, §2

IMR-32 = assay: as above; assay type: cell-based, human
Procedure: as §1, §2

JD = assay: as above; assay type: cell-based, human
Procedure: as §1, §2

KAG = assay: as above; assay type: cell-based, human
Procedure: as §1, §2

LAN-1 = assay: as above; assay type: cell-based, human
Procedure: as §1, §2

LG = assay: as above; assay type: cell-based, human
Procedure: as §1, §2

ME = assay: as above; assay type: cell-based, human
Procedure: as §1, §2

RDES = assay: as above; assay type: cell-based, human
Procedure: as §1, §2

Rh1 = assay: as above; assay type: cell-based, human
Procedure: as §1, §2

Rh36 = assay: as above; assay type: cell-based, human
Procedure: as §1, §2

Rh41 = assay: as above; assay type: cell-based, human
Procedure: as §1, §2

Rh4 = assay: as above; assay type: cell-based, human
Procedure: as §1, §2

SA-4 = assay: as above; assay type: cell-based, human
Procedure: as §1, §2

SHSY5Y = assay: as above; assay type: cell-based, human
Procedure: as §1, §2

SK-LMS-1 = assay: as above; assay type: cell-based, human
Procedure: as §1, §2

SK-NAS = assay: as above; assay type: cell-based, human
Procedure: as §1, §2

SK-NSH = assay: as above; assay type: cell-based, human
Procedure: as §1, §2

SW-684 = assay: as above; assay type: cell-based, human
Procedure: as §1, §2

TC32 = assay: as above; assay type: cell-based, human
Procedure: as §1, §2

TC71 = assay: as above; assay type: cell-based, human
Procedure: as §1, §2

To184.T = assay: as above; assay type: cell-based, human
Procedure: as §1, §2

VW = assay: as above; assay type: cell-based, human
Procedure: as §1, §2

[1] = test system: IGF1R-sal, Colo205, RD1, HT-29, WiDr, GEO, MDA-PCa-2b, MCF-7, H3396, N-87, BT474, and SKBR3 cell lines; assay: Drug combination study (Dilution of Ratios) in cellular proliferation assays; conditions: for Combination Result: in vitro combination with compound 1, multiple cell lines, analyzed by Isobolograms

## C[C@@]1(C(=O)Nc2ccc(F)nc2)CCCN1c1nc(Nc2cc(C3CC3)[nH]n2)c2cccn2n1 [Compound 2, (2S)-1-(4-((5-cyclopropyl-1H-pyrazol-3-yl)amino)pyrrolo[2,1-f][1,2,4]triazin-2-yl)-N-(6-fluoro-3-pyridinyl)-2-methyl-2-pyrrolidinecarboxamide]
5838; 5838 (Ewing)
  Sensitivity Classification: S (“S” means sensitive)
5838; Homo sapiens, 72 h
  IC50: 34 nM
CTR; CTR
  sensitivity/resistance classification in words: sensitive
CTR; CTR (Rhabdomyosarcoma)
  Sensitivity Classification: S (“S” means sensitive)
CTR; Homo sapiens, 72 h
  IC50: 253 nM
H2052; H2052 (Melignant Pleural Mesothelioma)
  Sensitivity Classification: R (“R” means resistant to the corresponding compounds.)
H2052; Homo sapiens, NCI-H2052, 72 h
  IC50: 1050 nM
H211; H211 (Melignant Pleural Mesothelioma)
  Sensitivity Classification: R (“R” means resistant to the corresponding compounds.)
H211; Homo sapiens, NCI-H211, 72 h
  IC50: 733 nM
H2595; H2595 (Melignant Pleural Mesothelioma)
  Sensitivity Classification: R (“R” means resistant to the corresponding compounds.)
H2595; Homo sapiens, NCI-H2595, 72 h
  IC50: 4480 nM
H513; H513 (Melignant Pleural Mesothelioma)
  Sensitivity Classification: R (“R” means resistant to the corresponding compounds.)
H513; Homo sapiens, H513, 72 h
  IC50: 4450 nM
HT1080/S; HT1080/S (Fibrosarcoma)
  Sensitivity Classification: R (“R” means resistant to the corresponding compounds.)
HT1080/S; Homo sapiens, HT-1080, 72 h
  IC50: 531 nM
HTB-92; HTB-92 (Liposarcoma)
  Sensitivity Classification: R (“R” means resistant to the corresponding compounds.)
HTB-92; Homo sapiens, 72 h
  IC50: 1020 nM
IMR-32; Homo sapiens, IMR-32, 72 h
  IC50: 261 nM
IMR-32; IMR-32 (Neuroblastoma)
  Sensitivity Classification: S (“S” means sensitive)
JD; Homo sapiens, 72 h
  IC50: 391 nM
JD; JD
  sensitivity/resistance classification in words: resistant
JD; JD (Ewing)
  Sensitivity Classification: R (“R” means resistant to the corresponding compounds.)
KAG; Homo sapiens, 72 h
  IC50: 1660 nM
KAG; KAG (Ewing)
  Sensitivity Classification: R (“R” means resistant to the corresponding compounds.)
LAN-1; Homo sapiens, LAN1, 72 h
  IC50: 40 nM
LAN-1; LAN-1 (Neuroblastoma)
  Sensitivity Classification: S (“S” means sensitive)
LG; Homo sapiens, 72 h
  IC50: 37.5 nM
LG; LG (Ewing)
  Sensitivity Classification: S (“S” means sensitive)
ME; Homo sapiens, 72 h
  IC50: 15 nM
ME; ME (Rhabdomyosarcoma)
  Sensitivity Classification: S (“S” means sensitive)
RDES; Homo sapiens, RD-ES, 72 h
  IC50: 11.7 nM
RDES; RDES (Ewing)
  Sensitivity Classification: S (“S” means sensitive)
Rh1; Homo sapiens, RH-1, 72 h
  IC50: 26.7 nM
Rh1; Rh1 (Rhabdomyosarcoma)
  Sensitivity Classification: S (“S” means sensitive)
Rh36; Homo sapiens, 72 h
  IC50: 1430 nM
Rh36; Rh36 (Rhabdomyosarcoma)
  Sensitivity Classification: R (“R” means resistant to the corresponding compounds.)
Rh41; Homo sapiens, Rh41, 72 h
  IC50: 4.7 nM
Rh41; Rh41 (Rhabdomyosarcoma)
  Sensitivity Classification: S (“S” means sensitive)
Rh4; Homo sapiens, Rh4, 72 h
  IC50: 4 nM
Rh4; Rh4 (Rhabdomyosarcoma)
  Sensitivity Classification: S (“S” means sensitive)
SA-4; Homo sapiens, 72 h
  IC50: 1300 nM
SA-4; SA-4 (Liposarcoma)
  Sensitivity Classification: R (“R” means resistant to the corresponding compounds.)
SHSY5Y; Homo sapiens, SH-SY5Y, 72 h
  IC50: 106 nM
SHSY5Y; SHSY5Y (Neuroblastoma)
  Sensitivity Classification: S (“S” means sensitive)
SK-LMS-1; Homo sapiens, SK-LMS-1, 72 h
  IC50: 687 nM
SK-LMS-1; SK-LMS-1 (Leiomyosarcoma)
  Sensitivity Classification: R (“R” means resistant to the corresponding compounds.)
SK-NAS; Homo sapiens, SK-N-AS, 72 h
  IC50: 497 nM
SK-NAS; SK-NAS
  sensitivity/resistance classification in words: resistant
SK-NAS; SK-NAS (Neuroblastoma)
  Sensitivity Classification: R (“R” means resistant to the corresponding compounds.)
SK-NSH; Homo sapiens, SK-N-SH, 72 h
  IC50: 139 nM
SK-NSH; SK-NSH (Neuroblastoma)
  Sensitivity Classification: S (“S” means sensitive)
SW-684; Homo sapiens, SW684, 72 h
  IC50: 5000 nM
SW-684; SW-684 (Fibrosarcoma)
  Sensitivity Classification: R (“R” means resistant to the corresponding compounds.)
TC32; Homo sapiens, TC-32, 72 h
  IC50: 8.4 nM
TC32; TC32 (Ewing)
  Sensitivity Classification: S (“S” means sensitive)
TC71; Homo sapiens, TC-71, 72 h
  IC50: 14.3 nM
TC71; TC71 (Ewing)
  Sensitivity Classification: S (“S” means sensitive)
To184.T; Homo sapiens, 72 h
  IC50: 470 nM
To184.T; To184.T (Liposarcoma)
  Sensitivity Classification: R (“R” means resistant to the corresponding compounds.)
VW; Homo sapiens, 72 h
  IC50: 19 nM
VW; VW (Ewing)
  Sensitivity Classification: S (“S” means sensitive)
[1]; compound 2 with HER1/HER2 inhibitors or dasatinib, data not shown
  Combination result of compound 2: synergy effects

## COc1cc([C@@H]2c3cc4c(cc3[C@@H](O[C@@H]3O[C@@H]5CO[C@@H](C)O[C@H]5[C@H](O)[C@H]3O)[C@H]3COC(=O)[C@H]23)OCO4)cc(OC)c1O [VP-16]
[1]
  Combination Result: Additive

## N.N.[Cl][Pt][Cl] [cisplatin]
[1]
  Combination Result: Additive

## C#Cc1cccc(Nc2ncnc3cc(OCCOC)c(OCCOC)cc23)c1 [erlotinib]
[1]
  Combination Result: synergistic effects; also recorded: Synergy

## COc1cc2ncnc(Nc3ccc(F)c(Cl)c3)c2cc1OCCCN1CCOCC1 [gefitnib]
[1]
  Combination Result: synergistic effects; also recorded: Synergy

## CS(=O)(=O)CCNCc1ccc(-c2ccc3ncnc(Nc4ccc(OCc5cccc(F)c5)c(Cl)c4)c3c2)o1 [lapatinib]
[1]
  Combination Result: synergistic effects; also recorded: Synergy

## CC(=O)O[C@H]1C(=O)[C@@]2(C)[C@H]([C@H](OC(=O)c3ccccc3)[C@]3(O)C[C@H](OC(=O)[C@H](O)[C@@H](NC(=O)c4ccccc4)c4ccccc4)C(C)=C1C3(C)C)[C@]1(OC(C)=O)CO[C@@H]1C[C@@H]2O [paclitaxel]
[1]
  Combination Result: Additive

## CC[C@]1(O)C[C@H]2CN(CCc3c([nH]c4ccccc34)[C@@](C(=O)OC)(c3cc4c(cc3OC)N(C=O)[C@H]3[C@@](O)(C(=O)OC)[C@H](OC(C)=O)[C@]5(CC)C=CCN6CC[C@]43[C@@H]65)C2)C1 [vincristine]
[1]
  Combination Result: Additive
